Columns and labels:
[1] = biological target: Mast/stem cell growth factor receptor Kit (Homo sapiens, UniProt P10721, T670I); assay: Inhibition of human c-Kit T670I mutant using poly[Glu:Tyr] (4:1) peptide substrate
[2] = biological target: Mast/stem cell growth factor receptor Kit (Homo sapiens, UniProt P10721, V654A); assay: Inhibition of human c-Kit V654A mutant using poly[Glu:Tyr] (4:1) peptide substrate
[3] = biological target: T1, Platelet-derived growth factor receptor beta (Homo sapiens, UniProt P09619); assay: Binding affinity to human PDGFRbeata
[4] = biological target: T2, Mast/stem cell growth factor receptor Kit (Homo sapiens, UniProt P10721); assay: Binding affinity to human c-Kit
[5] = biological target: T3, Receptor-type tyrosine-protein kinase FLT3 (Homo sapiens, UniProt P36888); assay: Binding affinity to human FLT3
T3 sequence (P36888 whole entry): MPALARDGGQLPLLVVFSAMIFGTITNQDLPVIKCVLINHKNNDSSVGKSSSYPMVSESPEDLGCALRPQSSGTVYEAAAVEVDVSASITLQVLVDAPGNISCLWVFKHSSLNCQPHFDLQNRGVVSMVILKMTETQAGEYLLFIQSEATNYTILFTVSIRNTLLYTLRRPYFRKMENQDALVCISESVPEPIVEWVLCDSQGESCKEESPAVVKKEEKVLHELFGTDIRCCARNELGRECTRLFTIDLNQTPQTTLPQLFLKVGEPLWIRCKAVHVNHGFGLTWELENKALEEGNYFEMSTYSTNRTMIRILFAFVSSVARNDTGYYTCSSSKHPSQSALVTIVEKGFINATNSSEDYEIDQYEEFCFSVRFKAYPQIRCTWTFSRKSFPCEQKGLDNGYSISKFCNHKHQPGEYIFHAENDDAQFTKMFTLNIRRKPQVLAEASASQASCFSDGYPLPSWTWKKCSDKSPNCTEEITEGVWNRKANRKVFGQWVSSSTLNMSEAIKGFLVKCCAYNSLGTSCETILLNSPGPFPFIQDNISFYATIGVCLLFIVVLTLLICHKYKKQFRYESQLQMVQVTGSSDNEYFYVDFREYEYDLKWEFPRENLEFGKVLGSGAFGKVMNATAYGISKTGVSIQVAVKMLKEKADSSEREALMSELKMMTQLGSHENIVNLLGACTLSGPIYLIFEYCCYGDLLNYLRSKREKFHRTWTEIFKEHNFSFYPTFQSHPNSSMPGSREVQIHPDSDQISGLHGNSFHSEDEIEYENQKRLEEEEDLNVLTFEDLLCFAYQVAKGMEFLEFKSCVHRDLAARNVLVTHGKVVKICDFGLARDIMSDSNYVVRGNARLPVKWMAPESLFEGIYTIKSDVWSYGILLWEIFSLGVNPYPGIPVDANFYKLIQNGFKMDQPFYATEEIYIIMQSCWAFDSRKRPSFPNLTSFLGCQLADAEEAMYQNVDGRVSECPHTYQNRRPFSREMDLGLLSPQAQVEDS

[6] = biological target: T1, Platelet-derived growth factor receptor beta; assay: Inhibition of human PDGFRbeta using poly[Glu:Tyr] (4:1) peptide substrate
[7] = biological target: T3, Receptor-type tyrosine-protein kinase FLT3; assay: Inhibition of human FLT3 using EAIYAAPFAKKK peptide substrate
[8] = biological target: Tyrosine-protein kinase Lck (Homo sapiens, UniProt P06239); assay: Inhibition of human LCK using poly[Glu:Tyr] (4:1) peptide substrate
[9] = biological target: T2, Mast/stem cell growth factor receptor Kit; assay: Inhibition of human c-Kit using poly[Glu:Tyr] (4:1) peptide substrate
[10] = biological target: T4, Discoidin domain-containing receptor 2 (Homo sapiens, UniProt Q16832); assay: Inhibition of human DDR2 using KKSRGDYMTMQIG peptide substrate
T4 sequence (Q16832 whole entry): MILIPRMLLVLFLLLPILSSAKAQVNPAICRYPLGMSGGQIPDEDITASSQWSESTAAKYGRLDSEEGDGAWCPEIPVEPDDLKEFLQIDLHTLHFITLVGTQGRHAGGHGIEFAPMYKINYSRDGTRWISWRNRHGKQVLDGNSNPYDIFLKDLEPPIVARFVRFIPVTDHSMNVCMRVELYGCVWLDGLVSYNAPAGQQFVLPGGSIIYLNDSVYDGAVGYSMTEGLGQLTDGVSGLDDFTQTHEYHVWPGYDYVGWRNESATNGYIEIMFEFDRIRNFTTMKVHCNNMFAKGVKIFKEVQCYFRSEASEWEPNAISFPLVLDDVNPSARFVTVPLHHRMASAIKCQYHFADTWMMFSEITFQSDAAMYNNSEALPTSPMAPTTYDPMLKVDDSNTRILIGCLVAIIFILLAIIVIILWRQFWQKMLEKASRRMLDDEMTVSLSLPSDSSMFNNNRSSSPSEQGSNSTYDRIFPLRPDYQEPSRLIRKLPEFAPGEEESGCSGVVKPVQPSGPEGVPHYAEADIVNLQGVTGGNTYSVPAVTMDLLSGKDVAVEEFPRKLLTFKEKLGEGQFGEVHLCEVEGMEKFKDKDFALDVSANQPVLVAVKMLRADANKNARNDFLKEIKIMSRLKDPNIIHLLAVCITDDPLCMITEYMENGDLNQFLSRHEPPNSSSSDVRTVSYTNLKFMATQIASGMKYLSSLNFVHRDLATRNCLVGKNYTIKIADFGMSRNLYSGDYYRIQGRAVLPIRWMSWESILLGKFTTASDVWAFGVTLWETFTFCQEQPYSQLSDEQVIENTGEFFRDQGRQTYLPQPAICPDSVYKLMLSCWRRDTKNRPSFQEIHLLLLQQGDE

[11] = biological target: T4, Discoidin domain-containing receptor 2
Description: Binding affinity to human DDR2

Sequence of Mast/stem cell growth factor receptor Kit (Homo sapiens, UniProt P10721, V654A) (P10721 26-976 V654A limits assumed): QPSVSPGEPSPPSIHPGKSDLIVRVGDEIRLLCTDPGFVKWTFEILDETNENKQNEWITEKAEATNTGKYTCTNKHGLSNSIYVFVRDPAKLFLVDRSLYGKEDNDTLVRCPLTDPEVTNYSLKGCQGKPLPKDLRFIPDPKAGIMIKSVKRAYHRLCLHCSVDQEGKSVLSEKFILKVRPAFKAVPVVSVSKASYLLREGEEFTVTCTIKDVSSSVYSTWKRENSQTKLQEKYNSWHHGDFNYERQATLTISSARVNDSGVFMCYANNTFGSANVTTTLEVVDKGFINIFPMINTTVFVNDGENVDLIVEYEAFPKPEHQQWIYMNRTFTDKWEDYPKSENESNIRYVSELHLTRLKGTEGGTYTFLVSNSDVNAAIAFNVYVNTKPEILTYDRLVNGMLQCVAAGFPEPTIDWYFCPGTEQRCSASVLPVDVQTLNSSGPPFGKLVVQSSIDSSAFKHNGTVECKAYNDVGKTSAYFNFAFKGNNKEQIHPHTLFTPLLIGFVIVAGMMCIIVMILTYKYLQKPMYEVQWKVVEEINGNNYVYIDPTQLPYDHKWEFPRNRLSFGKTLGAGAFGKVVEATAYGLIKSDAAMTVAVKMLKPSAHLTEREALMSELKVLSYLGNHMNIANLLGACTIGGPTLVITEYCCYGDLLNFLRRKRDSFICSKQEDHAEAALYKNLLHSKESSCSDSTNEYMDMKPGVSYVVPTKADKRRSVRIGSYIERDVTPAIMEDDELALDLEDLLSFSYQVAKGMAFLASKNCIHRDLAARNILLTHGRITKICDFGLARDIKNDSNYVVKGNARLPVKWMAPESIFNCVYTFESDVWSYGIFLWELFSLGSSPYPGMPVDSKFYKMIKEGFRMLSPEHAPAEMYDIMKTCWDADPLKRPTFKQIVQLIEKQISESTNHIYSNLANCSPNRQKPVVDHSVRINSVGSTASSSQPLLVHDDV
Sequence of Mast/stem cell growth factor receptor Kit (Homo sapiens, UniProt P10721, T670I) (P10721 26-976 T670I limits assumed): as the sequence (P10721 26-976 V654A limits assumed) above, with A629V, T645I counted along it
T1 sequence (P09619 whole entry): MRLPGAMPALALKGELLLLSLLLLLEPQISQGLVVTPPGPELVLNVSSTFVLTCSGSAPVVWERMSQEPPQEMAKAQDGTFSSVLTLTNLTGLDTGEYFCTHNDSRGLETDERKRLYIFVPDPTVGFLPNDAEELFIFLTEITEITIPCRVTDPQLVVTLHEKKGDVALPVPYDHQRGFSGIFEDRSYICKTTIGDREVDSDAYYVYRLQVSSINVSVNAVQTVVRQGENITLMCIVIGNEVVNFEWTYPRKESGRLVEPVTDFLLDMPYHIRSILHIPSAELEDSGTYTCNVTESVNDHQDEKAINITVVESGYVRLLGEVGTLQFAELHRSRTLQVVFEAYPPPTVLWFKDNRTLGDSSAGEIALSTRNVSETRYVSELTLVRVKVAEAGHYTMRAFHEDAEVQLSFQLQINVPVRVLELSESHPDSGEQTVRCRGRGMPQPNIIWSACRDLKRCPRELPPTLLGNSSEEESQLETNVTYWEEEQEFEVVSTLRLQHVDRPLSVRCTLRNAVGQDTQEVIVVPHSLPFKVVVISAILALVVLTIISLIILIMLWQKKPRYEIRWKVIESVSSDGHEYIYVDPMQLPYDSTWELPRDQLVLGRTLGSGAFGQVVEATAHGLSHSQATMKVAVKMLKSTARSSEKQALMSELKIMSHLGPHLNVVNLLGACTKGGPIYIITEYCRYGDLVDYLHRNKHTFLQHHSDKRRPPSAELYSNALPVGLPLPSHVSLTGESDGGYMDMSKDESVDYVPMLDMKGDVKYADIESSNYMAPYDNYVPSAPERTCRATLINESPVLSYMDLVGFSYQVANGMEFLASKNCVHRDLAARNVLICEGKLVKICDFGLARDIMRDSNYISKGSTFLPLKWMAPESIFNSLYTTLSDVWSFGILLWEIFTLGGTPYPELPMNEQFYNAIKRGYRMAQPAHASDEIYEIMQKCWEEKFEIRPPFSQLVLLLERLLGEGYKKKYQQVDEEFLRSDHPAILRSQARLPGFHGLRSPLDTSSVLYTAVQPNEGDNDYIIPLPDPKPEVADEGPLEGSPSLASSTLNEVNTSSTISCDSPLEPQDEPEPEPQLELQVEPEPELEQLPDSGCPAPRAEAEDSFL
T2 sequence (P10721 whole entry): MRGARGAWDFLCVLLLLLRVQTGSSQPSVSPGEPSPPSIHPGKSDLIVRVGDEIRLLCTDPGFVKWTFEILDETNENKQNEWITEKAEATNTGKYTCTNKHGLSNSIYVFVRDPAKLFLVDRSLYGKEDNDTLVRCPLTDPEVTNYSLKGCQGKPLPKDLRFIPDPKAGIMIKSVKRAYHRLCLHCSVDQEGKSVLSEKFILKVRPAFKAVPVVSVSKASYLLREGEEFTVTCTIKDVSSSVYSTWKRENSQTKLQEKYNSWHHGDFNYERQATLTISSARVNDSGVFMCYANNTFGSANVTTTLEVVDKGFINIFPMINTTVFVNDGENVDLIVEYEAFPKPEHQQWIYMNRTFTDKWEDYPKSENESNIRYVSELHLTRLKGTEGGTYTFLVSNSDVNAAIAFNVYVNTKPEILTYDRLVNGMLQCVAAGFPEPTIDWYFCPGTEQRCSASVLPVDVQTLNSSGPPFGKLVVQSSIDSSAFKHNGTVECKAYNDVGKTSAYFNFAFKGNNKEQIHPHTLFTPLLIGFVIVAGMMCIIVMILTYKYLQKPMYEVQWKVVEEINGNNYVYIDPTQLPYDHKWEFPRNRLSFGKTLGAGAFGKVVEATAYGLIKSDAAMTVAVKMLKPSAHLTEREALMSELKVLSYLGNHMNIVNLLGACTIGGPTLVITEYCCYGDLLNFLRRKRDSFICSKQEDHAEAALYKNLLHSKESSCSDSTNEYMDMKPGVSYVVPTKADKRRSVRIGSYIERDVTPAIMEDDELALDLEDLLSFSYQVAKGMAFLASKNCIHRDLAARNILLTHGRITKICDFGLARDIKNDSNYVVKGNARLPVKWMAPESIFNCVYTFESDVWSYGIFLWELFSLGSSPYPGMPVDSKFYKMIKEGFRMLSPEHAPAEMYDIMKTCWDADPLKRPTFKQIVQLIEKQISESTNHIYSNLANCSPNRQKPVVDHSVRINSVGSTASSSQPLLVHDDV
Sequence of Tyrosine-protein kinase Lck (P06239 whole entry): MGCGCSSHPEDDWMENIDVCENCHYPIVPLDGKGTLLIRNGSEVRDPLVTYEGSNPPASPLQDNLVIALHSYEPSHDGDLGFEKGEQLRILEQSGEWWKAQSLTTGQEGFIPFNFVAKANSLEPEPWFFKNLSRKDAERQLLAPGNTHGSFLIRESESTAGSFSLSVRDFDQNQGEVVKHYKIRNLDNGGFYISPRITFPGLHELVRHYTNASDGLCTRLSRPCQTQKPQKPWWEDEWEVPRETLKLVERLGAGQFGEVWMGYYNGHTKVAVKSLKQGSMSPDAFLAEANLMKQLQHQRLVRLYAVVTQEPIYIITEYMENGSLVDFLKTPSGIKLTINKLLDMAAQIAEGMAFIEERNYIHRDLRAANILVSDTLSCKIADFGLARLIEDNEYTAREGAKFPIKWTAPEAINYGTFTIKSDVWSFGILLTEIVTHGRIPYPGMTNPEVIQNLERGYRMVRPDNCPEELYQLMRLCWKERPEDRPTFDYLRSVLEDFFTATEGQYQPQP

| IC50 [1] [nM] | IC50 [2] [nM] | Kd [3] [nM] | Kd [4] [nM] | Kd [5] [nM] | IC50 [6] [nM] | IC50 [7] [nM] | IC50 [8] [nM] | IC50 [9] [nM] | IC50 [10] [nM] | Kd [11] [nM] | SMILES |
| --- | --- | --- | --- | --- | --- | --- | --- | --- | --- | --- | --- |
| > 1000 | > 1000 | 12 | 14 | 1200 | 768 | 882 | 1450 | 54.9 | 17.2 | 5.6 | Cc1cc(NC(=O)c2ccc(C)c(Nc3nccc(-c4cccnc4)n3)c2)cc(-n2cnc(C)c2)c1 |
| > 1000 | > 1000 | 7.2 | 4.4 | 1400 | 35400 | 974 | 44600 | 32.5 | 653 | 320 | Cc1cn(-c2cccc(NC(=O)c3ccc(C)c(Nc4nccc(-c5cccnc5)n4)c3)c2)cn1 |
| > 1000 | > 400 | 8.5 | 3.5 | 58 | > 5000 | 118 | 11100 | 9.96 | 179 | 14 | Cc1cn(-c2cc(F)cc(NC(=O)c3ccc(C)c(Nc4nccc(-c5cccnc5)n4)c3)c2)cn1 |

Reference: ChEMBL document CHEMBL2311368 (Bioorg Med Chem Lett, 2013)
